Assay results taken from patent US11396504B2, “Alkoxybenzo-five-membered (six-membered) heterocyclic amine compound and pharmaceutical use thereof” (FUDAN UNIVERSITY, priority 2018, dated 2022).

What was measured:
SMS = settings: reported weak inhibitory activity; cited from earlier work
[1] = target: T1, Sphingomyelin Synthase 1 (SMS1 pure enzyme) (Homo sapiens, UniProt Q86VZ5); assay: In vitro SMS1 pure enzyme inhibition, HPLC fluorogenic quantitative detecting method; format: biochemical; settings: for inhibition at 50 µM: single concentration 50 μM
T1 construct: Yu, Cao research group of National Protein Science Center (Shanghai)
T1 sequence (Q86VZ5 1-413): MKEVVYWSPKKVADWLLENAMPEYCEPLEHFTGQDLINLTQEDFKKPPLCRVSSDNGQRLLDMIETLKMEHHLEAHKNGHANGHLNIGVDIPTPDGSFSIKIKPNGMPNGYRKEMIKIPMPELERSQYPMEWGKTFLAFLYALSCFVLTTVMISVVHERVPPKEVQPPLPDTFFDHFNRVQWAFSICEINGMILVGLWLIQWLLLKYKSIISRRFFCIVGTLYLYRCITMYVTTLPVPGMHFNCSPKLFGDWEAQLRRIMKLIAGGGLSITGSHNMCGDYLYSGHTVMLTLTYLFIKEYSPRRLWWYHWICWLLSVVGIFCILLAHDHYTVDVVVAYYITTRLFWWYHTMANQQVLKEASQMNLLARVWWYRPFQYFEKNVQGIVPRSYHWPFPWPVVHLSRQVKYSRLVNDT
From the text: Referring to the above SMS2 inhibitory activity detection method, and using SMS1 pure enzyme instead of SMS2 pure enzyme for corresponding operation.
(§1) Using the same HPLC fluorogenic quantitative detecting method as reference (Xiaodong Deng; Hong Sun; et al. Analytical Letters, 2012, 45:12, 1581-1589) to analyses samples obtained above. Analysize and record peak areas of C6-NBD-SM (Asm) and C6-NBD-Ceramide (Acer) of each sample from blank group, positive control group (compound D2) and under tested compound group. Calculate inhibition rate from the formula below: […]
Part 4. Determination of SMS1 Median Inhibitory Concentration (IC50) and SMS1 Single Concentration (50 μM) Inhibitory Concentration of Alkoxybenzeno Five- or Six-Member Heterocyclic Amines (Scheme I-1˜I-38)
The experiment can be carried out with the corresponding concentration according to the operation similar to the determination of the median inhibitory concentration (IC50) of SMS2.

[2] = target: T2, Sphingomyelin Synthase 2 (SMS2 pure enzyme) (Homo sapiens, UniProt Q8NHU3); assay: In vitro SMS2 pure enzyme inhibition, HPLC fluorogenic quantitative detecting method (C6-NBD-Ceramide to C6-NBD-SM); format: biochemical; settings: for IC50: SMS2 pure enzyme, five concentrations, three parallel groups, experimental value; for Selectivity ratio: SMS1 IC50 relative to SMS2 IC50
T2 construct: Yu, Cao research group of National Protein Science Center (Shanghai)
T2 sequence (Q8NHU3 1-365): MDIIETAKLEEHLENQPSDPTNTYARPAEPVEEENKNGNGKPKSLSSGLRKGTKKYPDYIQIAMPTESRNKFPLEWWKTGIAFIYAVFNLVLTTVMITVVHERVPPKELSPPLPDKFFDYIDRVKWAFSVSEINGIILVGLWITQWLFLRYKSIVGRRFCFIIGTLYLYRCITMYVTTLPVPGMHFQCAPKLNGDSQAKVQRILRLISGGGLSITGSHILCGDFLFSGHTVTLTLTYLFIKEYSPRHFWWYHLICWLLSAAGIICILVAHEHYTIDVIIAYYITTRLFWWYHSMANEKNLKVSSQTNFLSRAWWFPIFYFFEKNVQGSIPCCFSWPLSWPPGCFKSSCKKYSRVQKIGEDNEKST
Procedure: Add […] SMS2 pure enzyme DDM solution (total protein content 1.5 μg/μL), 1 μL test compound in DMSO solution or blank DMSO solution, 79.7 μL DDM buffer to 1.5 mL Eppendorf tube, vortex 30 seconds, let stand at room temperature for 5 min. Then add 20 μL DDM buffer containing 1 μL DMPC in ethanol (40 mmol/L) and 1 μL C6-NBD-Ceramide in DMSO (1.16 mmol/L). After vortexing for 30 seconds, Incubate for 0.5 h under water bath at 37° C. Then remove, add 200 μL of absolute ethanol, and vortex for 30 seconds. Take out 200 μL of the mixture and store it at 4° C. for high performance liquid chromatography analysis.
as §1
The DMSO stock solution of under tested compound (6 mM) was diluted stepwise into five concentration gradient. 1 μL solution of each concentration was added into the trial system to prepare samples with the method mentioned in the first step of application case 15. The Asm values of the five concentration solution of tested compound were measured (compound D2 is a positive control), and the inhibition rate under the five concentration were calculated and fitted to obtain median inhibitory concentration (IC50). Each compound was measured three parallel groups. SMS2 median inhibitory concentration and SMS1 single inhibitory concentration (50 μM) of Scheme I-1˜I-38, and SMS1 median inhibitory concentration of some compounds are listed below in Table 1.

inhibition at 50 µM [1] [%]	IC50 [2] [nM]	IC50 [1] [µM]	Selectivity ratio [2]	SMILES	IC50 (SMS) [µM]
4	4140			N#Cc1ccccc1COc1cccc2onc(Nc3cccnc3)c12 [Scheme I-22, 4-((2-Cyanobenzyl)oxy)-N-(pyridin-3-yl)benzo[d]isoxazol-3-amine]	
7	1520			Fc1ccc(COc2cccc3onc(Nc4cccnc4)c23)cc1 [Scheme I-6, 4-((4-fluorobenzyl)oxy)-N-(pyridin-3-yl)benzo[d]isoxazol-3-amine]	
30	1270			FC(F)(F)Oc1cccc(COc2cccc3onc(Nc4cccnc4)c23)c1 [Scheme I-20, 4-((3-Trifluoromethoxybenzyl)oxy)-N-(pyridin-3-yl)benzo[d]-isoxazol-3-amine]	
-1	> 10000			O=C(CN1CCOCC1)Nc1noc2cccc(OCc3cc(F)ccc3Cl)c12 [Scheme I-38, N-(4-((2-chloro-5-fluorobenzyl)oxy)benzo[d]isoxazol-3-yl)-2-morpholinoacetamide]	
21	255			FC(F)(F)c1ccccc1COc1cccc2onc(Nc3cccnc3)c12 [Scheme I-13, 4-((2-Trifluoromethylbenzyl)oxy)-N-(pyridin-3-yl)benzo[d]isoxazole-3-amine]	

The next lines start with the molecule.

SMILES	inhibition at 50 µM [1] [%]	IC50 [2] [nM]	IC50 [1] [µM]	Selectivity ratio [2]	IC50 (SMS) [µM]
S=C(S)OC1CC2CC1C1CCCC21 (centres unmarked) [Scheme D609]					375
Fc1cccc(COc2cccc3onc(Nc4cccnc4)c23)c1 [Scheme I-5, 4-((3-fluorobenzyl)oxy)-N-(pyridin-3-yl)benzo[d]isoxazol-3-amine]	6	156			
CCc1ccccc1COc1cccc2onc(Nc3cccnc3)c12 [Scheme I-1, 4-((2-ethylbenzyl)oxy)-N-(pyridin-3-yl)benzo[d]isoxazol-3-amine]	65	117	40	342	
Fc1ccc(Cl)c(COc2cccc3onc(Nc4cccnc4)c23)c1 [Scheme I-2, 4-((2-Chloro-5-fluorobenzyl)oxy)-N-(pyridin-3-yl)benzo[d]-isoxazol-3-amine]	44	102	55	539	
Cc1ccccc1COc1cccc2onc(Nc3cccnc3)c12 [Scheme I-10, 4-((2-methylbenzyl)oxy)-N-(pyridin-3-yl)benzo[d]isoxazol-3-amine]	41	498	70	140	
FC(F)(F)Oc1ccc(Cl)cc1COc1cccc2onc(Nc3cccnc3)c12 [Scheme I-3, 4-((5-chloro-2-(trifluoromethoxy)benzyl)oxy)-N-(pyridin-3-yl)benzo[d]isoxazol-3-amine]	49	2000			
O=C(CN1CCCCC1)Nc1noc2cccc(OCc3cc(F)ccc3Cl)c12 [Scheme I-37, N-(4-((2-chloro-5-fluorobenzyl)oxy)benzo[d]isoxazol-3-yl)-2-(piperidin-1-yl)acetamide]	60	> 10000			
